Experiments:
T. cruzi CYP51 [1] = target: T1, T. cruzi CYP51 (Trypanosoma cruzi, UniProt Q7Z1V1); test: CYP51 spectral ligand binding assay; details: for time course of the amplitude of the type 2 spectral response: T. cruzi CYP51 1.0 μM, 0.2 μM ligand (enzyme in excess)
Chagas disease = details: acute and chronic forms; cited from earlier work
T. cruzi CYP51 [2] = target: T1, T. cruzi CYP51; test: CYP51 activity assay; assay type: biochemical; details: vs (R)-2; I/E=2, 1 h

T1 sequence (Q7Z1V1 whole entry): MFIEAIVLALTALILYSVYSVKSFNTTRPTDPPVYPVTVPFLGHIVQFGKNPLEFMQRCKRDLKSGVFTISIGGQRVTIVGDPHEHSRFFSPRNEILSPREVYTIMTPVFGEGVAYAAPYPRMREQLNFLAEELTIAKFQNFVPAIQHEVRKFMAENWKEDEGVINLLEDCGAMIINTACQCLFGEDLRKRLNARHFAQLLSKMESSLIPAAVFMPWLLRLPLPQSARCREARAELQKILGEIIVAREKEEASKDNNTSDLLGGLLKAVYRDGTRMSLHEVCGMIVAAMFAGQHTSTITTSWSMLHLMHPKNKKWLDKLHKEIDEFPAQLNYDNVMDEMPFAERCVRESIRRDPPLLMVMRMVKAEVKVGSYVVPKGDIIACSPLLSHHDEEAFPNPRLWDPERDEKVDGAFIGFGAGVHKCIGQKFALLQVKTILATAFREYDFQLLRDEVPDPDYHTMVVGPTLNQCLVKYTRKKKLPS

Compound: O=C(Nc1ccc(N2CCN(c3ccc(Cl)c(Cl)c3)CC2)cc1)OC(Cn1ccnc1)c1ccc(Cl)cc1Cl (centres unmarked) [Compound 6, 1-(2,4-dichlorophenyl)-2-(1H-imidazol-1-yl)ethyl 4-[4-(3,4-dichlorophenyl)piperazin-1-yl]phenylcarbamate]
- time course of the amplitude of the type 2 spectral response (T. cruzi CYP51 [1]): very slow increase

Compound: O=C(N[C@@H](Cn1ccnc1)c1ccc(Cl)cc1Cl)c1ccc(-c2nnc(-c3ccccc3)o2)cc1 [VNI, (R)-N-(1-(2,4-dichlorophenyl)-2-(1H-imidazol-1-yl)ethyl)-4-(5-phenyl-1,3,4-oxadiazol-2-yl)benzamide]
- cure of Chagas disease in mice (Chagas disease): cure both the acute and chronic forms

Compound: CC(C)c1ccc(NC(=O)O[C@H](Cn2ccnc2)c2ccc(Cl)cc2)cc1 [(S)-2, 1-(4-chlorophenyl)-2-(1H-imidazol-1-yl)ethyl-4-isopropylphenylcarbamate]
- apparent binding efficiency, fold higher than (R)-2 (T. cruzi CYP51 [1]; vs (R)-2): 2 fold
- inhibitory effect on the substrate conversion, fold stronger than (R)-2 (T. cruzi CYP51 [2]): ~50 fold

Compound: CC(=O)N1CCN(c2ccc(OCC3COC(Cn4ccnc4)(c4ccc(Cl)cc4Cl)O3)cc2)CC1 (centres unmarked) [ketoconazole, reference compound]
- time course of the amplitude of the type 2 spectral response (T. cruzi CYP51 [1]): somewhat similar pattern
